Laboratory results published in PubChem BioAssay AID488985 (Sanford-Burnham Center for Chemical Genomics, 2010).
The source made the active and inactive calls.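 The calls were made as follows: active = mean EC50 below 10 µM; inactive = the rest.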

Biological target: Apelin receptor (Homo sapiens) (UniProt P35414)
Assay: APJ agonists, beta-arrestin recruitment, SAR follow-up, cell-based, luminescence, set 2 (AID 488985)
Conditions: CHO-K1 AGTRL-1 PathHunter beta-arrestin

Chain of Apelin receptor (Homo sapiens) (P35414 whole entry, looked up): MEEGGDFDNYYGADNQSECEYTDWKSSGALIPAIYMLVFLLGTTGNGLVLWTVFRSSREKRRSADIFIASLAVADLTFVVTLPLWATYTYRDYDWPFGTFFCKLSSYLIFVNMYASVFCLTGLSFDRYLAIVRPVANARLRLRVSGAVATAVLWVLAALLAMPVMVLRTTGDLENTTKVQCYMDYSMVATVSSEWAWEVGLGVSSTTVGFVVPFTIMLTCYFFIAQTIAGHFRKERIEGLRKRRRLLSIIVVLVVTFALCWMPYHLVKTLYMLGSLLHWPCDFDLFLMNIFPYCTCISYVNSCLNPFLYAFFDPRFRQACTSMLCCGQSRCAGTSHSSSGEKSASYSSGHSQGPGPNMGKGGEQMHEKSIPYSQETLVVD

Row | SMILES | EC50
1 | CCOc1cc2[nH]c(=S)n(CCN3CCC(C)CC3)c(=O)c2cc1OCC | > 79 µM (inactive)
2 | CC(C)C1=CC(=NOS(=O)(=O)c2ccccc2)C=C(C(C)C)C1=O | 13.1 µM
3 | CCN1C(=O)/C(=C/C=C2/Sc3ccccc3N2CC)SC1=S | > 79 µM (inactive)
4 | CC1=CC(=O)C(C(C)(C)C)=C/C1=N/OS(=O)(=O)c1ccccc1 | 4.2 µM
5 | CC1=CC(=NOS(=O)(=O)c2ccccc2)C(C)=CC1=O | 6.07 µM
6 | Cc1cc(O)c(C2CCCCC2)cc1N=O | > 79 µM (inactive)
7 | CCOc1ccc(S(=O)(=O)Nc2nc(-c3ccccc3)cs2)cc1 | > 79 µM (inactive)
8 | CC1=C/C(=N/OS(=O)(=O)c2ccccc2)C(C(C)C)=CC1=O | 11.9 µM
9 | CCc1nnc(NC(=O)CSc2nc3cccnc3n2C2CCCCC2)s1 | inactive
10 | Cc1cc(C)n2nc3nc(N4CCCCC4)nc(-c4ccccc4)c3c2n1 | > 79 µM (inactive)
11 | CCN1C(c2ccccc2)=C(c2ccccc2)S/C1=C\C=C1/SC(=S)N(C)C1=O | 4.42 µM

The remaining lines, values ahead:

Row | EC50 | SMILES
12 | inactive | CCCCN(C)CCn1c(=S)[nH]c2cc(OCC)c(OCC)cc2c1=O
13 | inactive | CCOc1cc2[nH]c(=S)n(CCCC(=O)NCc3ccccn3)c(=O)c2cc1OCC
14 | > 79 µM (inactive) | CC1=CC(=O)C=C/C1=N/OS(=O)(=O)c1ccc(C)cc1
15 | > 79 µM (inactive) | CCc1nnc(NC(=O)CSc2nc3cccnc3n2Cc2ccccc2)s1
16 | > 79 µM (inactive) | CCN1C(=O)/C(=C/C=C2/SC(c3ccccc3)=C(c3ccccc3)N2CC)SC1=S
17 | inactive | CCOc1cc2[nH]c(=S)n(CCN3CCCCC3CC)c(=O)c2cc1OCC (configuration not stated)
